Results: patent US4156427A, “Injectable male animal sterilant for selectively controlling the function of testes” (priority 1977, dated 1979)
Like-named read-outs stand apart in the source and are kept apart here.

What was measured:
[1] = system: sexually mature cats; experiment: Example 16: injection into testes of sexually mature cats; assay type: in vivo, cat
Experimental: Those animals in Group I were injected in each testis with 0.1 ml of water.
The testosterone level for the cats in Group I was 6.8±0.2 ng/ml, for those in Group II 4.1±0.3 ng/ml and less than 1 ng/ml for those in Group III.

[2] = system: purebred Angus bulls; experiment: Example 17: injection into testes of Angus bulls, rate of gain and carcass quality; assay type: in vivo, cattle; conditions: for BODY WEIGHT Final: after one year; for BODY WEIGHT Final / % Fat / % Protein / Rate of Gain: III 500.0 mg tannic acid, IV 500.0 mg ZnSO4.7H2 O, V 250.0 mg + 250.0 mg; for % Fat / % Protein / Rate of Gain / rate of gain vs surgically castrated animals: one year; for Rate of Gain: surgically castrated 1.29; for rate of gain vs surgically castrated animals: vs Group II surgically castrated
Experimental: Ten purebred Angus bulls weighing an average of 400 pounds were divided into five groups, Group I being a control. Each animal in Group I was injected with 5.0 ml of water in each testis. Those in Group II were surgically castrated. The animals in Group III were injected with 500.0 mg of tannic acid, those in Group IV with 500.0 mg of ZnSO4.7H2 O and those in Group V with 250.0 mg of tannic acid and 250.0 mg of ZnSO4.7H2 O.
The animals were fed concentrate and grazed. After one year, they were sacrificed.

[3] = system: weaned male rats; experiment: Example 12: injection into testes of weaned 30-day old rats; conditions: 60 days, per testis: II 5.0 mg ZnSO4.7H2 O, III 5.0 mg tannic acid, IV 2.5 mg + 2.5 mg
Experimental: Two hundred 30-day old male rats, just weaned, were divided into four groups, Group I being a control. The rats in Group I were injected with 0.05 ml of water into each testis. The rats in Group II were similarly injected with 5.0 mg of ZnSO4.7H2 O, those in Group III with 5.0 mg of tannic acid and those in Group IV with a mixture (Kastrin) containing 2.5 mg tannic acid and 2.5 mg ZnSO4.7H2 O.
Forty of the animals were sacrificed 60 days after treatment. The others were watched for a year.

[4] = system: litter mate dogs, 8 weeks old; experiment: Example 13: injection into testes of 8 weeks old litter mate dogs; conditions: Group II, 20.0 mg tannic acid buffered to pH 6.5 into each testis
Experimental: Thirty-eight litter mate dogs, 8 weeks old, were divided into four groups. The dogs in Group I were a control and were injected with 0.2 ml of water into each testis. The animals in Group II were similarly treated in each testis with 20.0 mg of tannic acid buffered to a pH of 6.5. Those in Group III were treated with 20 mg of ZnSO4.7H2 O and those in Group IV with a mixture of 10 mg of tannic acid and 10 mg of ZnSO4.7H2 O.

[5] = system: male reproduction of sexually mature rats; experiment: Example 5: zinc sulfate injected into the testes of sexually mature rats; assay type: in vivo; conditions: rat, 0.5, 2.5 and 5.0 mg into the testes
Source text: Such injection was made into the midline of each testis with a sterilized needle.

[6] = system: spermatogenesis / testis; experiment: General findings: arrest of spermatogenesis and diffusion of zinc after injection into testis; assay type: in vivo; conditions: astringent zinc sulfate, injected in testis
Experimental: Recommended dosages, as above mentioned, depend upon the size and species of the animal and upon the desired result. Recommended dosages for sterilization of adult dogs weighing less than 10 kg is 0.25 ml into each testis of a mixture containing between 10.0 and 25.0 mg of tannic acid and 25.0 mg of ZnSO4.7H2 O. For dogs weighing between 10 and 15 kg, the recommended dose is 0.5 ml into each testis of a mixture containing between 10.0 and 50.0 mg of tannic acid and 50.0 mg of ZnSO4.7H2O. For those dogs weighing between 16 and 20 kg, the recommended dose is 1.0 ml into each testis of a mixture containing between 50.0 and 100.0 mg of tannic acid and between 75.0 and 100.0 mg of ZnSO4.7H2 O. For dogs weighing over 20 kg, the recommended dose is 1.0 ml in each testis of a mixture containing between 50.0 and 125.0 mg of tannic acid and 125.0 mg of ZnSO4.7H2 O.
In the case of puppies between 6 and 8 weeks of age, the recommended dose is 0.05 ml into each testis of a mixture containing 2.0 mg of tannic acid and 5.0 mg of ZnSO4.7H2 O. For puppies over 8 weeks but not sexually mature, the dose is preferably 0.08 ml into each of the testes of a mixture containing 7.0 mg of tannic acid and 7.0 mg of ZnSO4.7H2 O. For adult cats, the recommended dose is 0.1 ml into each testis of a mixture containing 10.0 mg of tannic acid and 10.0 mg of ZnSO4.7H2 O. […]

[7] = system: male reproduction of sexually mature rats; conditions: rat
Experimental: This example illustrates the effect of zinc sulfate on male reproduction of sexually mature rats when administered orally.
Three hundred sexually mature rats were divided into three groups, Group I being a control. Group II rats were treated daily with 15.0 mg ZnSO4.7H2 O and Group III rats with 50.0 mg, both groups receiving said treatment for 30 days.
(§1) ZnSO4 solution was made up from ZnSO4 . 7H2 O salt.
Therefore 15 and 50 mgZnSO4 . 7H2 O correspond to 8.42 mg, 28.0

[8] = system: male reproduction of sexually mature rats; conditions: rat; for Testosterone ng/ml serum / Epididymis weight / Prostate weight / Seminal Vesicles weight / Testes weight: i.p.; for Epididymis weight / Prostate weight / Seminal Vesicles weight / Testes weight: sacrificed at 60 days
Experimental: This example illustrates the effect of zinc sulfate on male reproduction of sexually mature rats when administered intraperitoneally.
Four hundred sexually mature rats were divided into four groups, Group I being a control. The rats in Groups II, III and IV were treated daily for 30 days, respectively, with 0.5, 1.0 and 5.0 mg ZnSO4.7H2 O. At the end of 60 days, as in Example 1, the rats were sacrificed.
as §1
Therefore 0.5 mg, 1.0 mg and 5.0 mg ZnSO4 . 7H2 O correspond to
0.28 mg, 0.56 mg and 2.81 mg ZnSO4 respectively.

[9] = system: male reproduction in sexually mature rats; conditions: rat
Experimental: One hundred sexually mature rats were divided into two groups, Group I being a control. Each of the Group II rats was injected with 25 mg ZnSO4.7H2 O into each side of the scrotum.
*Animals were sacrificed 60 days after

[10] = system: male reproduction of sexually mature rats
Experimental: This example illustrates the effect of zinc sulfate on male reproduction of sexually mature rats when administered in the vas diferens.
Eighty sexually mature male rats were divided into four groups, Group I being a control. The rats in Groups II, III and IV were treated by injecting 0.5, 2.5 and 5.0 mg ZnSO4.7H2 O into the vas diferens.
At the end of 60 days, as in the other examples, the rats were sacrificed.

[11] = system: human spermatozoa; conditions: cited from earlier work
[12] = oral, 15 mg ZnSO4.7H2 O daily 30 days
[13] = oral, 50 mg ZnSO4.7H2 O daily 30 days
[14] = oral, 15.0 and 50.0 mg daily 30 days
[15] = 0.5 mg ZnSO4.7H2 O daily 30 days
[16] = 1.0 mg ZnSO4.7H2 O daily 30 days
[17] = 5.0 mg ZnSO4.7H2 O daily 30 days
[18] = i.p., 0.5, 1.0 and 5.0 mg daily 30 days
[19] = 25 mg ZnSO4.7H2 O into each scrotum, 60 days after
[20] = 25 mg ZnSO4.7H2 O into each scrotum, 60 days after, p<0.001 vs control
[21] = 25 mg into each side of the scrotum
[22] = 25 mg into each side of the scrotum, FIGS. 1 and 2
[23] = rat, 0.5, 2.5 and 5.0 mg into the vas deferens, 60 days

tannic acid
sperm count ([1]; cats, one week, per testis II 10.0 mg tannic acid pH 6.8, III 5.0 mg tannic acid + 5.0 mg ZnSO4.7H2 O, control 230×10^6 /ml): zero | behaviour / male aggressiveness ([1]; cats, II 10.0 mg tannic acid, III 5.0 mg + 5.0 mg per testis): acted normally | testosterone level ([1]; cats, II 10.0 mg tannic acid, III 5.0 mg + 5.0 mg per testis, control 6.8±0.2 ng/ml): 4.1 ± 0.3 ng/mL | weight gain ([1]; in vivo): None of the animals in Groups II or III gained any more weight than those in Group I | BODY WEIGHT Final [2]: 826 | % Fat [2]: 18.0% | % Protein [2]: 18.3% | Rate of Gain [2]: 1.40 lbs/day | rate of gain vs surgically castrated animals [2]: faster rate of gain than the surgically castrated animals | Epididymis weight [3]: 0.31 ± 0.07 gm | Prostate weight [3]: 0.10 ± 0.05 gm | Seminal Vesicles Wt. [3]: 0.14 ± 0.04 gm | Testes weight [3]: 0.46 ± 0.12 gm | muscular appearance [4]: better muscular appearance than those in the control group

O=S(=O)([O-])[O-].[Zn+2] [zinc sulfate]
testosterone level [5]: decrease in the testosterone level | pregnancy of females mated ([5]; mated with females in heat): No pregnancy resulted | weight of the male reproductive organs ([5]; reduction increased with the dose): significant reduction in the weight of the male reproductive organs | BODY WEIGHT Final [2]: 910 | % Fat [2]: 20.9% | % Protein [2]: 17.9% | Rate of Gain [2]: 1.54 lbs/day | rate of gain vs surgically castrated animals [2]: faster rate of gain than the surgically castrated animals | diffusion of zinc beyond epididymis and prostate [6]: no diffusion beyond that | diffusion of zinc to the epididymis and prostate [6]: some diffusion of the zinc to the epididymis and prostate | Epididymis weight [7, 12]: 0.94 ± 0.03 gm | Prostate weight [7, 12]: 0.44 ± 0.03 gm | Seminal Vesicles weight [7, 12]: 0.73 ± 0.04 gm | Testes weight [7, 12]: 2.88 ± 0.17 gm | Testosterone ng/ml serum [7, 12]: 6.25 ± 1.68 ng/mL | Epididymis weight [7, 13]: 0.91 ± 0.04 gm | Prostate weight [7, 13]: 0.42 ± 0.02 gm | Seminal Vesicles weight [7, 13]: 0.78 ± 0.04 gm | Testes weight [7, 13]: 2.94 ± 0.13 gm | Testosterone ng/ml serum [7, 13]: 6.57 ± 0.58 ng/mL | histological changes in the male reproductive organs [7, 14]: No histological changes were observed | testosterone levels [7, 14]: no change was noted in testosterone levels | weight of the testes, epididymis, prostate or seminal vesicles [7, 14]: no significant change in the weight of the testes, epididymis, prostate or seminal vesicles | impregnation of females in heat ([7]; treated orally, mated with females in heat): impregnated the females | Testosterone ng/ml serum [8, 15]: 6.79 ± 1.34 ng/mL | Epididymis weight [8, 15]: 0.90 ± 0.02 gm | Prostate weight [8, 15]: 0.42 ± 0.04 gm | Seminal Vesicles weight [8, 15]: 0.72 ± 0.04 gm | Testes weight [8, 15]: 2.94 ± 0.03 gm | Testosterone ng/ml serum [8, 16]: 6.87 ± 0.58 ng/mL | Epididymis weight [8, 16]: 0.90 ± 0.02 gm | Prostate weight [8, 16]: 0.46 ± 0.03 gm | Seminal Vesicles weight [8, 16]: 0.74 ± 0.04 gm | Testes weight [8, 16]: 3.05 ± 0.07 gm | Testosterone ng/ml serum [8, 17]: 6.30 ± 0.68 ng/mL | Epididymis weight [8, 17]: 0.88 ± 0.04 gm | Prostate weight [8, 17]: 0.41 ± 0.02 gm | Seminal Vesicles weight [8, 17]: 0.89 ± 0.07 gm | Testes weight [8, 17]: 2.74 ± 0.13 gm | histological changes in the sex organs [8, 18]: no histological changes were observed in the sex organs | testosterone level [8, 18]: testosterone level was not changed | weight of the testes, epididymis, prostate or seminal vesicles [8, 18]: no significant reduction in the weight of the testes, epididymis, prostate or seminal vesicles | impregnation of females in heat ([8]; treated intraperitoneally, mated with females in heat): impregnated the females | Prostate weight [9, 19]: 0.82 ± 0.06 gm | Seminal Ves weight [9, 19]: 1.20 ± 0.02 gm | Epididymis weight [9, 20]: 0.56 ± 0.06 gm | Testes weight [9, 20]: 1.42 ± 0.09 gm | weight of the prostate and seminal vesicles [9, 21]: no difference, however, in the weight of the prostate and seminal vesicles | weight of the testes and epididymis [9, 21]: significant reduction in the weight of the testes and epididymis | pregnancy of females mated ([9]; 25 mg into each side of the scrotum, mated with females in heat): No pregnancy resulted | testosterone levels ([9]; 25 mg into each side of the scrotum, vs control): no significant reduction in testosterone levels | condition of the Leydig cells (histology of the testes) [9, 22]: no difference in the condition of the Leydig cells | condition of the sex cells (histology of the testes) [9, 22]: significant change in the condition of the sex cells | impregnation of females ([10]; rat, 5.0 mg ZnSO4.7H2 O in the vas deferens, mated with females in heat): did not impregnate the females | effect on spermatogenesis [10, 23]: no effect on spermatogenesis | weight of the testes, prostate or seminal vesicles [10, 23]: no significant change in the weight of the testes, prostate or seminal vesicles | pregnancy of females mated ([10]; rat, 0.5 and 2.5 mg ZnSO4.7H2 O in the vas deferens, mated with females in heat): Pregnancy also occurred | Epididymis weight [3]: 0.10 ± 0.03 gm | Prostate weight [3]: 0.05 ± 0.02 gm | Seminal Vesicles Wt. [3]: 0.05 ± 0.02 gm | Testes weight [3]: 0.21 ± 0.04 gm

[Zn] [zinc]
toxic effects on human spermatozoa ([11]; under certain conditions): can exert toxic effects on human spermatozoa | sperm motility ([11]; zinc 5 μg/ml (0.075 mM), without albumin): markedly inhibited sperm motility | sperm motility ([11]; zinc 50 μg/ml (0.75 mM), with 4% albumin): only slightly inhibited sperm motility
